According to PubChem BioAssay (NCI):
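Method: 48-hour compound exposure of cells in 96-well plates, five concentrations, linear interpolation of endpoints. TGI denotes the concentration required for complete inhibition of growth.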

How the values were obtained:
Assay in all cases: inhibition of tumour cell growth, NCI panel, 48 h
SR leukemia = test system: SR leukemia
SW-620 colon = test system: SW-620 colon
K-562 leukemia = test system: K-562 leukemia
SK-OV-3 ovarian = test system: SK-OV-3 ovarian
PC-3 prostate = test system: PC-3 prostate
MCF7 breast = test system: MCF7 breast
SF-268 CNS = test system: SF-268 CNS
MOLT-4 leukemia = test system: MOLT-4 leukemia
CCRF-CEM leukemia = test system: CCRF-CEM leukemia
MDA-N = test system: MDA-N
OVCAR-4 ovarian = test system: OVCAR-4 ovarian
UACC-62 melanoma = test system: UACC-62 melanoma
IGROV1 ovarian = test system: IGROV1 ovarian
UACC-257 melanoma = test system: UACC-257 melanoma
NCI-H23 lung = test system: NCI-H23 lung
UO-31 renal = test system: UO-31 renal
ACHN renal = test system: ACHN renal
MDA-MB-435 = test system: MDA-MB-435
COLO 205 colon = test system: COLO 205 colon
BT-549 breast = test system: BT-549 breast
HT29 colon = test system: HT29 colon
OVCAR-5 ovarian = test system: OVCAR-5 ovarian
KM12 colon = test system: KM12 colon
A549 NSCLC = test system: A549 NSCLC
T-47D breast = test system: T-47D breast
HOP-62 NSCLC = test system: HOP-62 NSCLC
CAKI-1 renal = test system: CAKI-1 renal
SN12C renal = test system: SN12C renal
HOP-92 NSCLC = test system: HOP-92 NSCLC
A498 renal = test system: A498 renal
DU-145 prostate = test system: DU-145 prostate
LOX IMVI melanoma = test system: LOX IMVI melanoma
OVCAR-3 ovarian = test system: OVCAR-3 ovarian
SF-295 CNS = test system: SF-295 CNS
SNB-19 CNS = test system: SNB-19 CNS
TK-10 renal = test system: TK-10 renal
SNB-75 CNS = test system: SNB-75 CNS
RXF 393 renal = test system: RXF 393 renal
786-0 renal = test system: 786-0 renal
HCC-2998 colon = test system: HCC-2998 colon
HCT-116 colon = test system: HCT-116 colon
SK-MEL-28 melanoma = test system: SK-MEL-28 melanoma
EKVX NSCLC = test system: EKVX NSCLC
HS 578T breast = test system: HS 578T breast
OVCAR-8 ovarian = test system: OVCAR-8 ovarian
RPMI-8226 leukemia = test system: RPMI-8226 leukemia
HCT-15 colon = test system: HCT-15 colon
SK-MEL-5 melanoma = test system: SK-MEL-5 melanoma
MDA-MB-231 breast = test system: MDA-MB-231 breast
SK-MEL-2 melanoma = test system: SK-MEL-2 melanoma
U251 CNS = test system: U251 CNS
NCI-H460 lung = test system: NCI-H460 lung
SF-539 CNS = test system: SF-539 CNS
HL-60(TB) leukemia = test system: HL-60(TB) leukemia
M14 melanoma = test system: M14 melanoma
NCI-H226 lung = test system: NCI-H226 lung
NCI/ADR-RES ovarian = test system: NCI/ADR-RES ovarian
NCI-H522 lung = test system: NCI-H522 lung

## CC1OC1P(=O)(O)O (centres undefined)
SR leukemia
  TGI: > 100 µM
SW-620 colon
  TGI: > 100 µM
K-562 leukemia
  TGI: > 100 µM
SK-OV-3 ovarian
  TGI: > 100 µM
PC-3 prostate
  TGI: > 100 µM
MCF7 breast
  TGI: > 100 µM
SF-268 CNS
  TGI: > 100 µM
MOLT-4 leukemia
  TGI: > 100 µM
CCRF-CEM leukemia
  TGI: > 100 µM
MDA-N
  TGI: > 100 µM
OVCAR-4 ovarian
  TGI: > 100 µM
UACC-62 melanoma
  TGI: > 100 µM
IGROV1 ovarian
  TGI: > 100 µM
UACC-257 melanoma
  TGI: > 100 µM
NCI-H23 lung
  TGI: > 100 µM
UO-31 renal
  TGI: > 100 µM
ACHN renal
  TGI: > 100 µM
MDA-MB-435
  TGI: > 100 µM
COLO 205 colon
  TGI: > 100 µM
BT-549 breast
  TGI: > 100 µM
HT29 colon
  TGI: > 100 µM
OVCAR-5 ovarian
  TGI: > 100 µM
KM12 colon
  TGI: > 100 µM
A549 NSCLC
  TGI: > 100 µM
T-47D breast
  TGI: > 100 µM
HOP-62 NSCLC
  TGI: > 100 µM
CAKI-1 renal
  TGI: > 100 µM
SN12C renal
  TGI: > 100 µM
HOP-92 NSCLC
  TGI: > 100 µM
A498 renal
  TGI: > 100 µM
DU-145 prostate
  TGI: > 100 µM
LOX IMVI melanoma
  TGI: > 100 µM
OVCAR-3 ovarian
  TGI: > 100 µM
SF-295 CNS
  TGI: > 100 µM
SNB-19 CNS
  TGI: > 100 µM
TK-10 renal
  TGI: > 100 µM
SNB-75 CNS
  TGI: > 100 µM
RXF 393 renal
  TGI: > 100 µM
786-0 renal
  TGI: > 100 µM
HCC-2998 colon
  TGI: > 100 µM
HCT-116 colon
  TGI: > 100 µM
SK-MEL-28 melanoma
  TGI: > 100 µM
EKVX NSCLC
  TGI: > 100 µM
HS 578T breast
  TGI: > 100 µM
OVCAR-8 ovarian
  TGI: > 100 µM
RPMI-8226 leukemia
  TGI: > 100 µM
HCT-15 colon
  TGI: > 100 µM
SK-MEL-5 melanoma
  TGI: > 100 µM
MDA-MB-231 breast
  TGI: > 100 µM
SK-MEL-2 melanoma
  TGI: > 100 µM
U251 CNS
  TGI: > 100 µM
NCI-H460 lung
  TGI: > 100 µM

## Cc1cccc(C)c1NC(=O)C(=O)C(c1ccccc1Cl)S(=O)(=O)Cc1ccccc1Cl (centres undefined)
SR leukemia
  TGI: > 100 µM
SW-620 colon
  TGI: > 100 µM
SF-539 CNS
  TGI: 39.2 µM
K-562 leukemia
  TGI: > 100 µM
SK-OV-3 ovarian
  TGI: > 61 µM
PC-3 prostate
  TGI: > 100 µM
MCF7 breast
  TGI: > 100 µM
SF-268 CNS
  TGI: 66.6 µM
HL-60(TB) leukemia
  TGI: 0.533 µM
MOLT-4 leukemia
  TGI: > 100 µM
CCRF-CEM leukemia
  TGI: > 100 µM
MDA-N
  TGI: > 100 µM
OVCAR-4 ovarian
  TGI: > 100 µM
UACC-62 melanoma
  TGI: > 100 µM
M14 melanoma
  TGI: > 100 µM
IGROV1 ovarian
  TGI: > 100 µM
UACC-257 melanoma
  TGI: > 100 µM
NCI-H23 lung
  TGI: > 76.9 µM
UO-31 renal
  TGI: > 100 µM
ACHN renal
  TGI: > 100 µM
MDA-MB-435
  TGI: > 100 µM
COLO 205 colon
  TGI: > 100 µM
BT-549 breast
  TGI: > 83.5 µM
HT29 colon
  TGI: > 100 µM
OVCAR-5 ovarian
  TGI: > 100 µM
KM12 colon
  TGI: > 100 µM
A549 NSCLC
  TGI: > 100 µM
T-47D breast
  TGI: > 100 µM
HOP-62 NSCLC
  TGI: 45.4 µM
NCI-H226 lung
  TGI: > 100 µM
CAKI-1 renal
  TGI: > 100 µM
SN12C renal
  TGI: > 100 µM
HOP-92 NSCLC
  TGI: 44 µM
DU-145 prostate
  TGI: > 100 µM
NCI/ADR-RES ovarian
  TGI: > 100 µM
NCI-H522 lung
  TGI: > 100 µM
LOX IMVI melanoma
  TGI: > 100 µM
OVCAR-3 ovarian
  TGI: > 100 µM
SF-295 CNS
  TGI: > 75.2 µM
SNB-19 CNS
  TGI: > 92 µM
TK-10 renal
  TGI: > 100 µM
SNB-75 CNS
  TGI: > 44.1 µM
RXF 393 renal
  TGI: 80.2 µM
786-0 renal
  TGI: > 71.7 µM
HCC-2998 colon
  TGI: > 100 µM
HCT-116 colon
  TGI: > 100 µM
SK-MEL-28 melanoma
  TGI: > 100 µM
EKVX NSCLC
  TGI: > 100 µM
HS 578T breast
  TGI: > 100 µM
OVCAR-8 ovarian
  TGI: > 69.6 µM
RPMI-8226 leukemia
  TGI: > 100 µM
HCT-15 colon
  TGI: > 100 µM
SK-MEL-5 melanoma
  TGI: > 100 µM
MDA-MB-231 breast
  TGI: > 73.4 µM
SK-MEL-2 melanoma
  TGI: > 100 µM
U251 CNS
  TGI: > 100 µM
NCI-H460 lung
  TGI: > 100 µM
